Broadly, the inhibition is the percentage by which the read-out fell short of the control. By IC50 is commonly meant the concentration that gives 50% inhibition.

Where only a bound is given, the exact number is not on record here.

In experiment [1] the target is MAP kinase-interacting serine/threonine-protein kinase 2 (Homo sapiens) (UniProt Q9HBH9). Put plainly: Inhibition of MNK2 (unknown origin) at 5 uM preincubated for 10 mins followed by substrate addition and measured after 60 mins by ADP-glo kinase assay relative to control. Conditions: time 70.0 min. (In ADP-Glo the light output rises with the ADP produced.)
Experiment [2] addresses Rho-associated protein kinase 2 (Homo sapiens, UniProt O75116). Put plainly: Inhibition of ROCK2 (unknown origin) incubated for 40 mins in presence of ATP by ADP-glo assay.
For experiment [3], the target named is MAP kinase-interacting serine/threonine-protein kinase 1 (Homo sapiens, UniProt Q9BUB5). Put plainly: Inhibition of MNK1 (unknown origin) at 5 uM preincubated for 10 mins followed by substrate addition and measured after 60 mins by ADP-glo kinase assay relative to control. Conditions: time 70.0 min.
Experiment [4] has as its target Rho-associated protein kinase 1 (Homo sapiens, UniProt Q13464). Put plainly: Inhibition of ROCK1 (unknown origin) incubated for 40 mins in presence of ATP by ADP-glo assay.

Sequence of MAP kinase-interacting serine/threonine-protein kinase 2 (Homo sapiens) (Q9HBH9 whole entry, looked up): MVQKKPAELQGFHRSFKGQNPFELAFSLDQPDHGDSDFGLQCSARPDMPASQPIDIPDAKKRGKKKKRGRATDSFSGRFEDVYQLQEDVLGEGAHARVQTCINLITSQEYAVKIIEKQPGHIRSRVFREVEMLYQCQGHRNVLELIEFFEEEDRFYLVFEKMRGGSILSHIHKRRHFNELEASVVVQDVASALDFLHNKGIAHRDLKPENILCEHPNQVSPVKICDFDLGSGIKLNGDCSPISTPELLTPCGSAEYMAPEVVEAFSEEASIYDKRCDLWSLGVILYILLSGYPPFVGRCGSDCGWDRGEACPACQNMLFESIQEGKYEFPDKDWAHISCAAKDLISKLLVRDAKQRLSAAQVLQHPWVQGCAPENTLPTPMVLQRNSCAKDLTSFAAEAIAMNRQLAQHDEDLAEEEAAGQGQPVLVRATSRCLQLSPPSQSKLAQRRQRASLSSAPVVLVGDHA
Sequence of Rho-associated protein kinase 2 (O75116 whole entry): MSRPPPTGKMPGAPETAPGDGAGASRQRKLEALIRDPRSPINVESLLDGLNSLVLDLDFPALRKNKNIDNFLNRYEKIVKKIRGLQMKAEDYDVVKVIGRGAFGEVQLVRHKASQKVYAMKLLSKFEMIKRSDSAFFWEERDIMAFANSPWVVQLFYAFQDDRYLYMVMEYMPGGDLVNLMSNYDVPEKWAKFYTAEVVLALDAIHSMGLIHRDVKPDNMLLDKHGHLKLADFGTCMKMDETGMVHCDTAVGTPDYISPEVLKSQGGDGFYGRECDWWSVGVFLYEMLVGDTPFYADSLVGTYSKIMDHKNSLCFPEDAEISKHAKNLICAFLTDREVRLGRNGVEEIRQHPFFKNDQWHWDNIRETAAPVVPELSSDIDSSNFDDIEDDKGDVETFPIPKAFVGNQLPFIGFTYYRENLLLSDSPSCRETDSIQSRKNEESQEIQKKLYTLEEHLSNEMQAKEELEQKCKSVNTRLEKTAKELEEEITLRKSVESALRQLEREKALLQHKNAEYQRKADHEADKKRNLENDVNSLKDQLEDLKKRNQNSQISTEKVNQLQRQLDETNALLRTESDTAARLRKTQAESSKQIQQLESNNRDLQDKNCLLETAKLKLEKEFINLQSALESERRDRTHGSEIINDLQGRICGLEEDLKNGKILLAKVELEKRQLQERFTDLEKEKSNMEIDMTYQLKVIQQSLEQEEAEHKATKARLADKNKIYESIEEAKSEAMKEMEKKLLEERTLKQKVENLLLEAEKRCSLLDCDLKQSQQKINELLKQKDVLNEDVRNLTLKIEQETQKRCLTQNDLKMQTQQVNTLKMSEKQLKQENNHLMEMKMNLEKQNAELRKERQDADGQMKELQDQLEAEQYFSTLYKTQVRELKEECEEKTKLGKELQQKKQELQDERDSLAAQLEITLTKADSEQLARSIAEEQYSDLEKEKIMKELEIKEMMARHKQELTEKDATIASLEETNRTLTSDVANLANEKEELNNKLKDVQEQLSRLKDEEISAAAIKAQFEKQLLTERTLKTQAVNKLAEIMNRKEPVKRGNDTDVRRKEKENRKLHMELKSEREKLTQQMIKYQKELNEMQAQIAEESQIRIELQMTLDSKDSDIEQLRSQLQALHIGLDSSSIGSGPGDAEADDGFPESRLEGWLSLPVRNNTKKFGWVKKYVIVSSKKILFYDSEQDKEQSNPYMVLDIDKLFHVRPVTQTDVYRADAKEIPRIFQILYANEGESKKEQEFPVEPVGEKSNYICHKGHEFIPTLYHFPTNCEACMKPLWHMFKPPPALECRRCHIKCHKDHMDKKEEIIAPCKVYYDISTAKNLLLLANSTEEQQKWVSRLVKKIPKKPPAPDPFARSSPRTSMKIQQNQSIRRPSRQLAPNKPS
Sequence of MAP kinase-interacting serine/threonine-protein kinase 1 (Q9BUB5 whole entry, looked up): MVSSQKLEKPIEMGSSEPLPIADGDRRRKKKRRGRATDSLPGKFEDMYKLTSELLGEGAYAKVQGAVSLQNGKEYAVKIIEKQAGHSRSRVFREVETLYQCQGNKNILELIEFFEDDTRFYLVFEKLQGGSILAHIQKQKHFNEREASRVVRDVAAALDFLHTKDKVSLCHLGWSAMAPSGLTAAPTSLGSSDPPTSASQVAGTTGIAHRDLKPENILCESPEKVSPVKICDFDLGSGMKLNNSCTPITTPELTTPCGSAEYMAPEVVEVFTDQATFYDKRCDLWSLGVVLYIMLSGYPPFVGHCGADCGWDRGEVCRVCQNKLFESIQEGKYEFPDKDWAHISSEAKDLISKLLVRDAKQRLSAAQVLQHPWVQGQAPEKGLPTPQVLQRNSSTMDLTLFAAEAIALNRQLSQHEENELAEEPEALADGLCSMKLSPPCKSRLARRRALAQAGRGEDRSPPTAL
Sequence of Rho-associated protein kinase 1 (Q13464 whole entry): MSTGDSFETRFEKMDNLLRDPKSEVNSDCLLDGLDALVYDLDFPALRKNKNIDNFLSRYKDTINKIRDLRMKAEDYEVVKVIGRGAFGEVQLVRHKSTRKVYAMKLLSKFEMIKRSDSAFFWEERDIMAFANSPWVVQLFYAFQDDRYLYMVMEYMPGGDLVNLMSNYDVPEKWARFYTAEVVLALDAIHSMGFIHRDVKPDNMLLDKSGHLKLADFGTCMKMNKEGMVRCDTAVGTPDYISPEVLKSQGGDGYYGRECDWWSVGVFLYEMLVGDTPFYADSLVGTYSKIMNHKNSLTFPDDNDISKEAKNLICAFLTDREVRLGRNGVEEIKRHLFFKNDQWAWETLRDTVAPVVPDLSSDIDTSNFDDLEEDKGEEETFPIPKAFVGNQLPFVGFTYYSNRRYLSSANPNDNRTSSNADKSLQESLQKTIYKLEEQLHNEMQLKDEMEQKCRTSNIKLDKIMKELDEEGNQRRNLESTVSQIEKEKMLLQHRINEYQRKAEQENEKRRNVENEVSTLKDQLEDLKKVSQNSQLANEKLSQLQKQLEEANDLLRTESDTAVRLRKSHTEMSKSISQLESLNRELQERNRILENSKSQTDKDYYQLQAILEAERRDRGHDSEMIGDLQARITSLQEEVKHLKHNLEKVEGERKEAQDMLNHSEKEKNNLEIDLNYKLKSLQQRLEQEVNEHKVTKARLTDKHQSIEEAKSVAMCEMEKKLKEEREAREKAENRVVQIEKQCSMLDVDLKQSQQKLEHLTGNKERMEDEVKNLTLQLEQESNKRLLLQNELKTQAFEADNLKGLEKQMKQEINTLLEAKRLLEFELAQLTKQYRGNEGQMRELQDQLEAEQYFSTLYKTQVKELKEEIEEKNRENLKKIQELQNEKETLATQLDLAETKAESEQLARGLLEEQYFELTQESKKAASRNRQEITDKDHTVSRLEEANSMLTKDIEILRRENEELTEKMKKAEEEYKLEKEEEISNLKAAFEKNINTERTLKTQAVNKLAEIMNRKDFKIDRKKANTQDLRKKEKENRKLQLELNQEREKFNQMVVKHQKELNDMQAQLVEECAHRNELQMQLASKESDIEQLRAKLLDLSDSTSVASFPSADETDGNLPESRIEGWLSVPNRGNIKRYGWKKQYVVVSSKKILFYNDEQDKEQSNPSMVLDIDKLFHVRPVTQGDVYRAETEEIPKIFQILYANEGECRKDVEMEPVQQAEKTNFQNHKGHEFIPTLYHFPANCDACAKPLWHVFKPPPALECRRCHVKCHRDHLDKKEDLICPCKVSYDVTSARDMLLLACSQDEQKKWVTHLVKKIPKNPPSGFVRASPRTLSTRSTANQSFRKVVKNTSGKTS

In the case of `Cc1ccc(C(=O)N2CCC(c3cc(-c4ccnc5[nH]ccc45)[nH]n3)CC2)cc1`, the inhibition in experiment [1] came to 52.2%; in experiment [3], 74.4%. The IC50 in experiment [2] was determined as 0.484 µM; in experiment [4], 0.773 µM.

On to `COC(=O)c1cccc(CN2CCC(c3cc(-c4ccnc5[nH]ccc45)[nH]n3)CC2)c1`, for which the inhibition in experiment [1] is 70.9%; in experiment [3] it was 61.6%. Further, the IC50 in experiment [2] came out at 0.39 µM; in experiment [4], 0.57 µM.

Turning to `c1ccc(CN2CCC(c3cc(-c4ccnc5[nH]ccc45)[nH]n3)CC2)cc1`, the values for the inhibition in experiment [1] and in experiment [3] were 82.4% and 73.2%, respectively. Moreover, the results for the half-inhibitory concentration (IC50) in experiment [2] and in experiment [4] were 0.172 µM and 0.197 µM, respectively.

For the compound `COc1ccc(C(=O)N2CCC(c3cc(-c4ccnc5[nH]ccc45)[nH]n3)CC2)cc1OC`, the inhibition was 59.7% in experiment [1] and 73% in experiment [3]. Further, the half-inhibitory concentration (IC50) in experiment [2] was found to be 0.362 µM; in experiment [4], 0.696 µM.

Take `O=C(c1ccc(F)cc1)N1CCC(c2cc(-c3ccnc4[nH]ccc34)[nH]n2)CC1`: the inhibition was 47.4% in experiment [1] and 61.1% in experiment [3]. For the same compound, the IC50 amounted to 0.833 µM in experiment [2] and 0.821 µM in experiment [4].

Regarding `O=C(c1cccc(F)c1)N1CCC(c2cc(-c3ccnc4[nH]ccc34)[nH]n2)CC1`, the figures for the inhibition in experiment [1] and in experiment [3] were 52.1% and 66.6%, respectively. Further, the figures for the half-maximal inhibitory concentration (IC50) in experiment [2] and in experiment [4] were 0.542 µM and 0.842 µM, respectively.

Consider `O=S(=O)(C1CC1)N1CCC(c2cc(-c3ccnc4[nH]ccc34)[nH]n2)CC1`, for which the inhibition in experiment [1] stood at 73.4%; in experiment [3], 63.6%. Further, the values for the IC50 in experiment [2] and in experiment [4] were 1.07 µM and 0.489 µM, respectively.

As to `COc1ccc(CN2CCC(c3cc(-c4ccnc5[nH]ccc45)[nH]n3)CC2)cc1`, the inhibition stood at 67.4% in experiment [1] and 61.5% in experiment [3]. In addition, the IC50 in experiment [2] came out at 0.118 µM; in experiment [4], 0.183 µM.

On to `Fc1cccc(CN2CCC(c3cc(-c4ccnc5[nH]ccc45)[nH]n3)CC2)c1`, for which the inhibition was found to be 76.8% in experiment [1] and 69.9% in experiment [3]. The values for the IC50 in experiment [2] and in experiment [4] were 0.338 µM and 0.295 µM, respectively.

Regarding `O=C(C1CC1)N1CCC(c2cc(-c3ccnc4[nH]ccc34)[nH]n2)CC1`, the figures for the inhibition in experiment [1] and in experiment [3] were 42.5% and 40.9%, respectively. Further, the 50% inhibitory concentration (IC50) in experiment [2] was 1.07 µM; in experiment [4], 1.01 µM.

As for `O=C(c1ccc(C(F)(F)F)cc1)N1CCC(c2cc(-c3ccnc4[nH]ccc34)[nH]n2)CC1`, the values for the inhibition in experiment [1] and in experiment [3] were 57.4% and 81.3%, respectively. Moreover, the half-inhibitory concentration (IC50) came to 0.939 µM in experiment [2] and 1.16 µM in experiment [4].

On to `COc1cccc(CC(=O)N2CCC(c3cc(-c4ccnc5[nH]ccc45)[nH]n3)CC2)c1`, for which the inhibition in experiment [1] stood at 62.7%; in experiment [3], 41.6%. In addition, the 50% inhibitory concentration (IC50) is 0.305 µM in experiment [2] and 0.35 µM in experiment [4].

For `Cc1ccc(CN2CCC(c3cc(-c4ccnc5[nH]ccc45)[nH]n3)CC2)cc1`, the inhibition in experiment [1] was determined as 82.2%; in experiment [3] it was 76%. Further, the concentration for half-maximal inhibition (IC50) in experiment [2] and in experiment [4] was more than 5 µM throughout.

As to `c1ccc(Oc2cccc(CN3CCC(c4cc(-c5ccnc6[nH]ccc56)[nH]n4)CC3)c2)cc1`, the inhibition in experiment [1] was determined as 73.5%; in experiment [3], 68.1%. Also, the IC50 came out at 1.06 µM in experiment [2] and 1.34 µM in experiment [4].

As to `O=C(c1ccc(Cl)cc1)N1CCC(c2cc(-c3ccnc4[nH]ccc34)[nH]n2)CC1`, the results for the inhibition in experiment [1] and in experiment [3] were 58.4% and 82.2%, respectively. The figures for the half-maximal inhibitory concentration (IC50) in experiment [2] and in experiment [4] were 0.369 µM and 0.899 µM, respectively.

For the compound `O=C(c1ccc([N+](=O)[O-])cc1)N1CCC(c2cc(-c3ccnc4[nH]ccc34)[nH]n2)CC1`, the inhibition in experiment [1] stood at 63.5%; in experiment [3], 78.6%. The IC50 in experiment [2] worked out at 0.699 µM; in experiment [4], 0.823 µM.

Consider `CCS(=O)(=O)N1CCC(c2cc(-c3ccnc4[nH]ccc34)[nH]n2)CC1`, for which the inhibition in experiment [1] is 22.4%; in experiment [3] it was 16%. Further, the IC50 stood at 0.158 µM in experiment [2] and 0.286 µM in experiment [4].

For `N#CCN1CCC(c2cc(-c3ccnc4[nH]ccc34)[nH]n2)CC1`, the inhibition stood at 84.4% in experiment [1] and 71.4% in experiment [3]. In addition, the IC50 in experiment [2] turned out to be 0.13 µM; in experiment [4], 0.261 µM.

In the case of `COc1ccc(C(=O)N2CCC(c3cc(-c4ccnc5[nH]ccc45)[nH]n3)CC2)cc1`, the values for the inhibition in experiment [1] and in experiment [3] were 54.7% and 75.3%, respectively. The results for the IC50 in experiment [2] and in experiment [4] were 0.492 µM and 0.829 µM, respectively.

Turning to `O=C(C1CCCC1)N1CCC(c2cc(-c3ccnc4[nH]ccc34)[nH]n2)CC1`, the inhibition in experiment [1] worked out at 44.4%; in experiment [3], 47.5%. For the same compound, the IC50 in experiment [2] came to 3.88 µM; in experiment [4] it was 1.98 µM.

Take `O=C(CC1CC1)N1CCC(c2cc(-c3ccnc4[nH]ccc34)[nH]n2)CC1`: the inhibition was determined as 46.5% in experiment [1] and 39.3% in experiment [3]. For the same compound, the IC50 in experiment [2] stood at 0.787 µM; in experiment [4], 1.18 µM.

Regarding `CC(=O)c1cccc(CN2CCC(c3cc(-c4ccnc5[nH]ccc45)[nH]n3)CC2)c1`, the inhibition in experiment [1] amounted to 89%; in experiment [3], 69.2%. Moreover, the 50% inhibitory concentration (IC50) in experiment [2] is 0.823 µM; in experiment [4], 0.895 µM.

As to `Fc1ccc(CN2CCC(c3cc(-c4ccnc5[nH]ccc45)[nH]n3)CC2)cc1F`, the inhibition in experiment [1] was 78.8%; in experiment [3], 71.1%. In addition, the IC50 in experiment [2] worked out at 0.295 µM; in experiment [4] it was 0.425 µM.

As to `Cc1ccc(S(=O)(=O)N2CCC(c3cc(-c4ccnc5[nH]ccc45)[nH]n3)CC2)cc1`, the figures for the inhibition in experiment [1] and in experiment [3] were 6.9% and 6.4%, respectively. For the same compound, the IC50 in experiment [2] and in experiment [4] was more than 10 µM throughout.

With `COC(=O)c1ccc(C(=O)N2CCC(c3cc(-c4ccnc5[nH]ccc45)[nH]n3)CC2)cc1`, the inhibition came to 53.4% in experiment [1] and 77.1% in experiment [3]. For the same compound, the IC50 stood at 0.401 µM in experiment [2] and 0.777 µM in experiment [4].

Take `COc1cc(C(=O)N2CCC(c3cc(-c4ccnc5[nH]ccc45)[nH]n3)CC2)cc(OC)c1OC`: the inhibition in experiment [1] turned out to be 74.4%; in experiment [3] it was 60.8%. In addition, the IC50 was found to be 1.45 µM in experiment [2] and 1.49 µM in experiment [4].

For the compound `COc1ccc(CN2CCC(c3cc(-c4ccnc5[nH]ccc45)[nH]n3)CC2)cc1OC`, the results for the inhibition in experiment [1] and in experiment [3] were 66.1% and 65.2%, respectively. The IC50 was found to be 0.15 µM in experiment [2] and 0.241 µM in experiment [4].

Consider `Cc1cccc(CN2CCC(c3cc(-c4ccnc5[nH]ccc45)[nH]n3)CC2)c1`, for which the figures for the inhibition in experiment [1] and in experiment [3] were 79.9% and 71.4%, respectively. The IC50 in experiment [2] and in experiment [4] was more than 5 µM each time.

On to `O=S(=O)(F)N1CCC(c2cc(-c3ccnc4[nH]ccc34)[nH]n2)CC1`, for which the inhibition was 86.7% in experiment [1] and 68.3% in experiment [3]. Further, the half-maximal inhibitory concentration (IC50) came out at 0.329 µM in experiment [2] and 0.229 µM in experiment [4].

On to `COc1ccc(CC(=O)N2CCC(c3cc(-c4ccnc5[nH]ccc45)[nH]n3)CC2)cc1`, for which the inhibition in experiment [1] amounted to 4.2%; in experiment [3] it was 8.8%. Further, the concentration for half-maximal inhibition (IC50) in experiment [2] came out at 0.486 µM; in experiment [4], 0.813 µM.

In the case of `C=CC(=O)N1CCC(c2cc(-c3ccnc4[nH]ccc34)[nH]n2)CC1`, the inhibition was found to be 61% in experiment [1] and 56% in experiment [3]. The IC50 was found to be 0.553 µM in experiment [2] and 0.791 µM in experiment [4].

As for `O=C(C1CCC1)N1CCC(c2cc(-c3ccnc4[nH]ccc34)[nH]n2)CC1`, the inhibition is 42.3% in experiment [1] and 39.9% in experiment [3]. For the same compound, the figures for the concentration for half-maximal inhibition (IC50) in experiment [2] and in experiment [4] were 1.05 µM and 0.846 µM, respectively.

Turning to `O=C(c1ccc(F)c(F)c1)N1CCC(c2cc(-c3ccnc4[nH]ccc34)[nH]n2)CC1`, the values for the inhibition in experiment [1] and in experiment [3] were 53.3% and 67.2%, respectively. Moreover, the concentration for half-maximal inhibition (IC50) was 0.907 µM in experiment [2] and 0.699 µM in experiment [4].

In the case of `CC(=O)N1CCC(c2cc(-c3ccnc4[nH]ccc34)[nH]n2)CC1`, the inhibition in experiment [1] was found to be 58%; in experiment [3], 41.8%. Moreover, the IC50 in experiment [2] was 0.98 µM; in experiment [4] it was 1.22 µM.

On to `O=C(Cc1ccccc1)N1CCC(c2cc(-c3ccnc4[nH]ccc34)[nH]n2)CC1`, for which the inhibition in experiment [1] was 72.2%; in experiment [3], 49.7%. Further, the IC50 in experiment [2] is 0.433 µM; in experiment [4], 0.432 µM.

As to `O=C(C1CCCCC1)N1CCC(c2cc(-c3ccnc4[nH]ccc34)[nH]n2)CC1`, the inhibition came out at 14.6% in experiment [1] and 20.8% in experiment [3]. The IC50 in experiment [2] stood at 2.11 µM; in experiment [4], 1.72 µM.

In the case of `CC(=O)c1ccc(C(=O)N2CCC(c3cc(-c4ccnc5[nH]ccc45)[nH]n3)CC2)cc1`, the inhibition in experiment [1] was 60.9%; in experiment [3], 71.7%. Besides, the figures for the 50% inhibitory concentration (IC50) in experiment [2] and in experiment [4] were 0.468 µM and 0.512 µM, respectively.

Take `FC(F)(F)c1cccc(CN2CCC(c3cc(-c4ccnc5[nH]ccc45)[nH]n3)CC2)c1`: the inhibition in experiment [1] was 57.2%; in experiment [3], 50.9%. For the same compound, the results for the IC50 in experiment [2] and in experiment [4] were 0.969 µM and 1.18 µM, respectively.

`COc1cccc(C(=O)N2CCC(c3cc(-c4ccnc5[nH]ccc45)[nH]n3)CC2)c1`: the inhibition amounted to 34.3% in experiment [1] and 52.5% in experiment [3]. The half-maximal inhibitory concentration (IC50) in experiment [2] was found to be 0.577 µM; in experiment [4] it was 0.805 µM.

The values above are taken from ChEMBL document CHEMBL6177997, “Design, Synthesis, and Evaluation of Novel ROCK Inhibitors for Glaucoma Treatment: Insights into In Vitro and In Vivo Efficacy and Safety” (J Med Chem, 2025).
